In ChEMBL document CHEMBL1201862, “PubChem BioAssay data set” (2004):
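Test compounds were applied to cells in 96-well plates for 48 hours at 5 doses. Here, GI50 denotes the concentration required for 50% inhibition of growth.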 The source made the active and inactive calls. Cut-off read from the data, not from the text of the source: active = GI50 up to about 1.1 µM and inactive = higher.

Tests used:
Assay in all cases: NCI tumour cell line growth inhibition, 48 h
[1] = test system: A549
[2] = test system: HCT-15
[3] = test system: HOP-62
[4] = test system: HOP-92
[5] = test system: HT-29
[6] = test system: Malme-3M
[7] = test system: OVCAR-3
[8] = test system: OVCAR-4
[9] = test system: OVCAR-8
[10] = test system: RXF 393
[11] = test system: SK-MEL-28
[12] = test system: SK-OV-3
[13] = test system: SN12C
[14] = test system: UO-31
[15] = test system: HCC 2998
[16] = test system: KM12
[17] = test system: OVCAR-5
[18] = test system: SF-268

Structure (SMILES): CC1C=C(OC(=O)c2ccccc2)C(=O)C(n2cc(F)c(=O)n(C(=O)c3ccccc3)c2=O)O1 (centres undefined)
- GI50 [1]: > 100 µM (inactive)
- GI50 [2]: 32.5 µM
- GI50 [3]: > 100 µM (inactive)
- GI50 [4]: 35.6 µM (inactive)
- GI50 [5]: 34.7 µM (inactive)
- GI50 [6]: 31 µM (inactive)
- GI50 [7]: 22.9 µM (inactive)
- GI50 [8]: 52.2 µM (inactive)
- GI50 [9]: 37.2 µM (inactive)
- GI50 [10]: 33.3 µM (inactive)
- GI50 [11]: 46.8 µM (inactive)
- GI50 [12]: > 100 µM (inactive)
- GI50 [13]: 53.1 µM (inactive)
- GI50 [14]: 93.3 µM (inactive)

Structure (SMILES): Cc1nc(-c2nc([N+](=O)[O-])c([N+](=O)[O-])[nH]2)cs1
- GI50 [1]: > 100 µM (inactive)
- GI50 [15]: > 100 µM (inactive)
- GI50 [3]: > 100 µM (inactive)
- GI50 [4]: > 100 µM (inactive)
- GI50 [5]: > 100 µM (inactive)
- GI50 [16]: > 100 µM (inactive)
- GI50 [6]: > 100 µM (inactive)
- GI50 [7]: > 100 µM (inactive)
- GI50 [8]: > 100 µM (inactive)
- GI50 [17]: > 100 µM (inactive)
- GI50 [10]: > 100 µM (inactive)
- GI50 [18]: 88.9 µM (inactive)
- GI50 [11]: > 100 µM (inactive)
- GI50 [12]: > 100 µM (inactive)
- GI50 [13]: > 100 µM (inactive)
- GI50 [14]: > 100 µM (inactive)

Structure (SMILES): O=C(c1ccccc1)c1c(CC(O)c2cccnc2)n(C(=O)c2ccccc2)c2ccccc12 (centres undefined)
- GI50 [1]: 29.4 µM (inactive)
- GI50 [15]: 16.5 µM (inactive)
- GI50 [2]: 21.3 µM
- GI50 [3]: 16 µM (inactive)
- GI50 [4]: 15 µM (inactive)
- GI50 [5]: 18.8 µM (inactive)
- GI50 [16]: 18.9 µM (inactive)
- GI50 [6]: 23.8 µM (inactive)
- GI50 [7]: 16.6 µM (inactive)
- GI50 [8]: 15.2 µM (inactive)
- GI50 [17]: 17.9 µM (inactive)
- GI50 [9]: 25.3 µM (inactive)
- GI50 [18]: 20 µM (inactive)
- GI50 [11]: 17.7 µM (inactive)
- GI50 [14]: 14.1 µM (inactive)

Structure (SMILES): COCC1N=C(c2ccc(OC)c(OCc3ccccc3)c2OC)O[C@H]1c1ccccc1 (some centres undefined)
- GI50 [1]: 24.5 µM (inactive)
- GI50 [15]: 35.6 µM (inactive)
- GI50 [2]: 17.5 µM
- GI50 [3]: 37.2 µM (inactive)
- GI50 [4]: 13.1 µM (inactive)
- GI50 [5]: 19.8 µM (inactive)
- GI50 [16]: 21.2 µM (inactive)
- GI50 [7]: 16 µM (inactive)
- GI50 [8]: 20.5 µM (inactive)
- GI50 [17]: 25 µM (inactive)
- GI50 [9]: 23.1 µM (inactive)
- GI50 [10]: 29.3 µM (inactive)
- GI50 [18]: 25.8 µM (inactive)
- GI50 [11]: 20.7 µM (inactive)
- GI50 [12]: 46.6 µM (inactive)
- GI50 [13]: 20.5 µM (inactive)
- GI50 [14]: 4.89 µM (inactive)

Structure (SMILES): COc1ccc(C)cc1C1CCC(=O)O1 (centres undefined)
- GI50 [1]: > 100 µM (inactive)
- GI50 [15]: > 100 µM (inactive)
- GI50 [2]: > 100 µM
- GI50 [3]: > 100 µM (inactive)
- GI50 [5]: > 100 µM (inactive)
- GI50 [16]: > 100 µM (inactive)
- GI50 [6]: > 100 µM (inactive)
- GI50 [7]: > 100 µM (inactive)
- GI50 [17]: > 100 µM (inactive)
- GI50 [9]: > 100 µM (inactive)
- GI50 [10]: > 100 µM (inactive)
- GI50 [11]: > 100 µM (inactive)
- GI50 [12]: > 100 µM (inactive)
- GI50 [13]: > 100 µM (inactive)
- GI50 [14]: > 100 µM (inactive)

Structure (SMILES): O=C1c2cc3c(cc2[C@@H]2C(O)[C@H]4O[C@H]4C4CCN1C42)OCO3 (some centres undefined)
- GI50 [1]: > 37.5 µM (inactive)
- GI50 [15]: > 37.5 µM (inactive)
- GI50 [2]: > 37.5 µM
- GI50 [3]: > 37.5 µM (inactive)
- GI50 [4]: > 37.5 µM (inactive)
- GI50 [5]: > 37.5 µM (inactive)
- GI50 [16]: > 37.5 µM (inactive)
- GI50 [6]: > 37.5 µM (inactive)
- GI50 [7]: > 37.5 µM (inactive)
- GI50 [8]: > 37.5 µM (inactive)
- GI50 [17]: > 37.5 µM (inactive)
- GI50 [9]: > 37.5 µM (inactive)
- GI50 [18]: > 37.5 µM (inactive)
- GI50 [11]: > 37.5 µM (inactive)
- GI50 [12]: > 37.5 µM (inactive)
- GI50 [13]: > 37.5 µM (inactive)
- GI50 [14]: > 37.5 µM (inactive)
